Assay [1] relates to CD8+CD45RClow Tregs. Nature of the assay: Peptide stimulation assay (CD8+CD45RClow Treg activation by CD25 and CD69 expression). Type of assay: cell-based, human. To be noted: 5-days culture, syngeneic CD8+CD45RClow Tregs and autologous HLA-A2+ pDCs, IL-2 and CpG ODN, peptide 120 μg/ml, versus control peptide. On the procedure: Peptide Stimulation Assay
CD8^+ CD45RC^low Treg cells and autologous pDCs from the same healthy HLA-A2^+ donor were co-cultured in serum-free Texmacs medium (Miltenyi Biotec) supplemented with IL-2 (25 U/ml, Proleukin, Novartis), CpG ODN 2006 (0.5 μM) and the different synthesized peptides (120 μg/ml) at a ratio 4:1 of Tregs:pDCs for 5 days. CD8^+CD45RC^low Treg activation was analyzed based on expression of CD69 and CD25 markers. As negative control and in order to normalize the results, a negative peptide was used (ALIAPVHAV). Dapi was used as viability marker. As a positive control, CD8^+ CD45RC^low Tregs were stimulated with anti-CD3 (OKT3, 1 μg/ml) and anti-CD28 mAbs (clone: CD28.2; 1 μg/ml). Results were analyzed using the FACS Canto II cytometer (BD Biosciences) and Flowjo software (Tree Star, Inc. USA, version 10).
For the peptide activation test, a non-parametric Wilcoxon signed-rank test, comparing column median to a hypothetical value of 1.0, was done. Analyses were made with GraphPad Prism 7 software (GraphPad).
Four 16aa peptides were designed from four random human MHC class II alleles based on the sequences of the Du51 peptide (NREEYARFDSDVGEYR) and the overlapping 12-mer peptide Bu31-10 (YLRYDSDVGEYR) both bearing the SDVGEYR motif at C-term end (FIG. 1): Hpep1 (NQEESVRFDSDVGEFR-SEQ ID NO: 1), Hpep2 (NREEYARFDSDVGEFR-SEQ ID NO: 2), Hpep3 (NREEYARFDSDVGVYR-SEQ ID NO: 3) and Hpep4 (NREEYVRFDSDVGEYR-SEQ ID NO: 4). We individually tested these peptides differing at positions 2, 5, 6, 14 or 15 in a 5-days culture assay using and syngeneic CD8^+CD45RC^low Tregs and autologous HLA-A2^+ pDCs from the same individuals in presence of interleukin-2 (IL-2) and CpG oligodeoxynucleotides (or CpG ODN) in serum free Texmacs medium (FIG. 2). […] These three peptides share the conserved SDVGE-X-R (SEQ ID NO: 13) 7aa motif while Hpep3 has in addition a valine (V) in place of the glutamic acid (E) at position 14 of the peptide, probably impacting TCR recognition.

For assay [2], the system named is CD8+CD45RClow Tregs. Nature of the assay: Expansion in vitro of human CD8+CD45RClow Tregs. Type of assay: cell-based. To be noted: 14 days culture with autologous APCs, IL-2, IL-15 and CpG ODN, versus day 0. On the procedure: Expansion In Vitro of Human CD8^+CD45RC^low Tregs
5×10^5 CD8^+CD45RC^low Tregs and 2×10^6 autologous APCs from HLA-A2^+ healthy donors were seeded in a 24 well plate in Texmacs Medium (Miltenyi Biotec), supplemented with penicillin (100 U/ml), streptomycin (100 μg/ml), rhlL-2 (1000 U/ml, Proleukin, Novartis), rhIL-15 (10 ng/ml, Miltenyi Biotec), CpG (0.5 μM), and the different peptides (120 μg/ml) derived from HLA-II molecule (GenScript). As negative control, a negative irrelevant peptide (ALIAPVHAV) was used. As a positive control, CD8^+CD45RC^low Tregs were stimulated with plate-coated anti-CD3 (clone: OKT3, 1 μg/ml) mAb and soluble anti-CD28 mAb (clone: CD28.2; 1 μg/ml). At day 7, Tregs were counted and re-expanded. Cytokines were freshly added twice a week. Finally, at day 14, cells were used for experiments.
To determine whether CD8^+ CD45RC^low Tregs could be expanded using this MHC-II derived peptide, an expansion protocol was set up using sorted CD8^+CD45RC^low/− Tregs and APCs from the same individual with the Hpep2 peptide in presence of IL-2, IL-15 and CpG ODN and compared to a polyclonal stimulation (anti-CD3/28) in similar conditions (FIG. 4).

In another assay the test system is CD4+CD25- T cells. In words: Suppression assay (proliferation of CFSE-labeled CD4+CD25- Teffs stimulated with allogeneic APCs). Type of assay: cell-based, human. To be noted: Tregs expanded 14 days, co-cultured 5 days at 1:1:1 with syngeneic CD4+CD25- T cells and pooled allogeneic APCs; compared to fresh Tregs. How it is done:
CFSE-labeled CD4^+ CD25^− Teffs and CD8^+ CD45RC^low Tregs from the same healthy volunteer (HLA-A2^+) were co-cultured with a pool of allogeneic APCs from 3 different healthy donors (HLA-A2^−) in RPMI1640 medium supplemented with 5% human AB serum. Culture was done at 1:1:1 ratio (where 1=5×10^4 cells/well) for 5 days in triplicate in a V-bottom 96 well plate. Proliferation of CD4^+CD25^− responder T cells was analyzed by flow cytometry (FACS Canto II BD Biosciences TM) by gating on CD3^+CD4^+ living cells (DAPI negative) and using Flowjo software (Tree Star, Inc. USA, version 10).

The subject of assay [3] is CD8+CD45RClow Tregs. Nature of the assay: Extracellular and intracellular stainings of expanded Tregs (flow cytometry). It is filed as cell-based, human. To be noted: 14 days expansion, Hpep2 versus anti-CD3/28 expanded Tregs. How it is done: Extracellular and Intracellular Stainings
For the analysis of GITR (clone: DT5D3, Miltenyi Biotec), Foxp3 (clone:259D/C7, BD Biosciences), IL-10 (clone: JES3-9D7 , BD Biosciences), IL-34 (clone: IC5265P, R&D), TGFβ1 (clone: TW4-9E7, BD Biosciences) and IFNγ (clone: B27, BD Biosciences), CD8^+CD45RC^low Treg cells were stimulated with PMA (50 ng/ml) and ionomycin (1 μg/ml) for 5 h in presence of Brefeldin A (10 μg/ml) for the last 4 hours in Texmacs medium (Miltenyi Biotec). In order to select viable cells, Fixable Viability Dye eF506 (ThermoFisher Scientific) was used as viability marker. Fc receptors were blocked before staining (BD Biosciences) and cells were permeabilized with Fix/Perm kit (Ebiociences) for intracellular staining Cell phenotype was analyzed by flow cytometry using the LSR II (BD Biosciences, Mountain View, Calif.) and Flowjo software (Tree Star. Inc. USA, version 10).

A further assay has as its system allograft. Particulars: rats treated with the peptide only (WO2015/150492); cited from earlier work.

As to “NQEESVRFDSDVGEFR (listed as Homo sapiens) [Hpep1, 16aa peptide designed from a human MHC class II allele]”, in the assay on CD8+CD45RClow Tregs [1], the “CD25 expression on Tregs” value is “upregulated” and the “CD69 expression on Tregs” value is “upregulated”.
“NREEYARFDSDVGEFR (listed as Homo sapiens) [Hpep2, 16aa peptide designed from a human MHC class II allele]”: in the assay with CD8+CD45RClow Tregs [1], the “CD25 expression on Tregs” value is listed as “upregulated” and the “CD69 expression on Tregs” value is on record as “upregulated”. The “total Treg fold expansion” value in the assay with CD8+CD45RClow Tregs [2] worked out at 10 fold. Also, the “suppressive activity of expanded CD8+CD45RClow Tregs on an allogeneic immune response” value in the assay with CD4+CD25- T cells was “efficient at suppressing an allogeneic immune response”. For the same sequence, in the assay on CD8+CD45RClow Tregs [3], the “level of expression of Foxp3, GITR, IL-10, IFNγ and IL-34 in expanded CD8+CD45RClow Tregs” value is “no significant differences”.
For “NREEYARFDSDVGEYR [Du51, dominant MHC class II-derived antigen recognized by TCR-biased CD8+ Tregs in rats (WO2015/150492)]”, the “allograft tolerance in recipient rats” value in the assay with allograft is “donor-specific allograft tolerance induction”.
For the sequence “NREEYVRFDSDVGEYR (listed as Homo sapiens) [Hpep4, 16aa peptide designed from a human MHC class II allele]”, in the assay with CD8+CD45RClow Tregs [1], the “CD25 expression on Tregs” value is recorded as “upregulated” and the “CD69 expression on Tregs” value is “upregulated”.

(Values after patent US20220064260A1, “ISOLATED MHC-DERIVED HUMAN PEPTIDES AND USES THEREOF FOR STIMULATING AND ACTIVATING THE SUPPRESSIVE FUNCTION OF CD8+CD45RCLOW TREGS” (INSERM (INSTITUT NATIONAL DE LA SANTÉ ET DE LA RECHERCHE …, priority 2018, published 2022).)
